{"source": "patent US20240299385A1", "about": "(ReWind Therapeutics NV, priority 2021, published 2024)", "data": [{"target": "T1, human GPR17 receptor (Homo sapiens, UniProt Q13304)", "T1 construct": "host or cells: HEK-293", "T1 sequence (Q13304 whole entry)": "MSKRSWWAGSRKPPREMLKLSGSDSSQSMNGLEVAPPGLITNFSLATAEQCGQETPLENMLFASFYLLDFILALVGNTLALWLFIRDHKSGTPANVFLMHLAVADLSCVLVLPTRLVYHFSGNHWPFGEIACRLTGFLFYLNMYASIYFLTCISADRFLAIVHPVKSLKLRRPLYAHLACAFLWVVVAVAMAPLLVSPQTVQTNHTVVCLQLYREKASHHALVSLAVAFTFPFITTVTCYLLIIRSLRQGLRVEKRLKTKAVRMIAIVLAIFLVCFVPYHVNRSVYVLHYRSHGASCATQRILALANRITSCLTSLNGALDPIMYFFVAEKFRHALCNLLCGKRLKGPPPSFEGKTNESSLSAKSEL", "assay": "Calcium mobilization functional assay (Fluo-8, FLIPR TETRA) in HEK-293 hGPR17 (Gα-q assay)", "assay_type": "cell-based", "conditions": "antagonism of MDL29,951 (~EC80) induced Ca2+ signal; cell line (HEK-293 hGPR17 or HEK-293 Suchi5 hGPR17) not given", "method_in_brief": "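Fluo-8-loaded HEK-293 hGPR17 cells (60 min dye loading, room temperature) were preincubated with compound for twenty minutes, then challenged with agonist MDL29,951 at ~EC80, 500 nM. Intracellular calcium release via Gα-q was recorded as FLIPR fluorescence for a further 2 minutes; compounds tested in duplicate.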", "units": {"IC50": "µM"}, "values": [{"smiles": "O=S(=O)(Nc1cc(F)c(C(F)(F)F)cc1F)c1c[nH]c(-c2ccccc2)c1", "note": "[Cpd 071, N-[2,5-difluoro-4-(trifluoromethyl)phenyl]-5-phenyl-1H-pyrrole-3-sulfonamide]", "IC50": "< 0.5"}, {"smiles": "COc1cc(CC#N)ccc1NS(=O)(=O)c1c[nH]c(-c2ccccc2)c1", "note": "[Cpd 165, N-[4-(cyanomethyl)-2-methoxy-phenyl]-5-phenyl-1H-pyrrole-3-sulfonamide]", "IC50": "0.5 to 5"}, {"smiles": "N#Cc1ccc(NS(=O)(=O)c2c[nH]c(-c3cccc4ccccc34)c2)c(F)c1", "note": "[Cpd 382, N-(4-cyano-2-fluorophenyl)-5-naphthalen-1-yl-1H-pyrrole-3-sulfonamide]", "IC50": "0.5 to 5"}, {"smiles": "O=S(=O)(Nc1ccc(C(F)(F)F)cc1F)c1c[nH]c(-c2ccccn2)c1", "note": "[Cpd 123, N-[2-fluoro-4-(trifluoromethyl)phenyl]-5-(2-pyridyl)-1H-pyrrole-3-sulfonamide]", "IC50": "0.5 to 5"}, {"smiles": "N#Cc1ccc(NS(=O)(=O)c2c[nH]cc2Cc2ccc(C(F)(F)F)cc2)c(F)c1", "note": "[Cpd 387, N-(4-cyano-2-fluorophenyl)-4-[[4-(trifluoromethyl)phenyl]methyl]-1H-pyrrole-3-sulfonamide]", "IC50": "5 to 50"}, {"smiles": "O=S(=O)(Nc1cc(F)c(OC(F)F)cc1F)c1c[nH]c(-c2ccns2)c1", "note": "[Cpd 638, N-[4-(difluoromethoxy)-2,5-difluorophenyl]-5-(1,2-thiazol-5-yl)-1H-pyrrole-3-sulfonamide]", "IC50": "< 0.5"}, {"smiles": "COc1cccc(-c2c[nH]cc2S(=O)(=O)Nc2ccc(C#N)cc2F)c1", "note": "[Cpd 220, N-(4-cyano-2-fluoro-phenyl)-4-(3-methoxyphenyl)-1H-pyrrole-3-sulfonamide]", "IC50": "0.5 to 5"}, {"smiles": "O=S(=O)(Nc1ccc(Cl)cc1F)c1c[nH]c(-c2ccccn2)c1", "note": "[Cpd 181, N-(4-chloro-2-fluoro-phenyl)-5-(2-pyridyl)-1H-pyrrole-3-sulfonamide]", "IC50": "0.5 to 5"}, {"smiles": "Cc1cc(NS(=O)(=O)c2c[nH]c(-c3ccc(F)cc3)c2)c(F)cc1C#N", "note": "[Cpd 513, N-(4-cyano-2-fluoro-5-methylphenyl)-5-(4-fluorophenyl)-1H-pyrrole-3-sulfonamide]", "IC50": "0.5 to 5"}, {"smiles": "O=S(=O)(Nc1cc(F)c(OCC(F)F)cc1F)c1c[nH]c(-c2ccccn2)c1", "note": "[Cpd 473, N-[4-(2,2-difluoroethoxy)-2,5-difluorophenyl]-5-pyridin-2-yl-1H-pyrrole-3-sulfonamide]", "IC50": "0.5 to 5"}, {"smiles": "N#Cc1ccc(NS(=O)(=O)c2c[nH]c(F)c2Cc2ccccc2)c(F)c1", "note": "[Cpd 609, 4-benzyl-N-(4-cyano-2-fluorophenyl)-5-fluoro-1H-pyrrole-3-sulfonamide]", "IC50": "0.5 to 5"}, {"smiles": "N#Cc1ccc(NS(=O)(=O)c2c[nH]c(-c3cccc(Cl)c3Cl)c2)c(F)c1", "note": "[Cpd 292, N-(4-cyano-2-fluoro-phenyl)-5-(2,3-dichlorophenyl)-1H-pyrrole-3-sulfonamide]", "IC50": "0.5 to 5"}, {"smiles": "COc1ccc(-c2cc(S(=O)(=O)Nc3ccc(C#N)cc3F)c[nH]2)c(Cl)c1", "note": "[Cpd 300, 5-(2-chloro-4-methoxy-phenyl)-N-(4-cyano-2-fluoro-phenyl)-1H-pyrrole-3-sulfonamide]", "IC50": "0.5 to 5"}, {"smiles": "O=S(=O)(Nc1cc(OC(F)F)c(Cl)cc1F)c1c[nH]cc1-c1cccc(F)c1", "note": "[Cpd 425, N-[4-chloro-5-(difluoromethoxy)-2-fluorophenyl]-4-(3-fluorophenyl)-1H-pyrrole-3-sulfonamide]", "IC50": "0.5 to 5"}, {"smiles": "O=S(=O)(Nc1cccc2c1OCO2)c1c[nH]c(-c2ccccc2)c1", "note": "[Cpd 069, N-(1,3-benzodioxol-4-yl)-5-phenyl-1H-pyrrole-3-sulfonamide]", "IC50": "0.5 to 5"}, {"smiles": "CCOc1cc(F)c(NS(=O)(=O)c2c[nH]c(-c3ccccn3)c2)cc1F", "note": "[Cpd 237, N-(4-ethoxy-2,5-difluoro-phenyl)-5-(2-pyridyl)-1H-pyrrole-3-sulfonamide]", "IC50": "0.5 to 5"}, {"smiles": "COc1nc(C)ccc1NS(=O)(=O)c1c[nH]c(-c2ccccc2)c1", "note": "[Cpd 128, N-(2-methoxy-6-methyl-3-pyridyl)-5-phenyl-1H-pyrrole-3-sulfonamide]", "IC50": "5 to 50"}, {"smiles": "N#Cc1ccc(NS(=O)(=O)c2c[nH]c(-c3cccc4ccoc34)c2)c(F)c1", "note": "[Cpd 442, 5-(1-benzofuran-7-yl)-N-(4-cyano-2-fluorophenyl)-1H-pyrrole-3-sulfonamide]", "IC50": "< 0.5"}, {"smiles": "O=S(=O)(Nc1cc(F)c(C(F)(F)F)cc1F)c1c[nH]cc1Cc1cccc(Cl)c1", "note": "[Cpd 568, 4-[(3-chlorophenyl)methyl]-N-[2,5-difluoro-4-(trifluoromethyl)phenyl]-1H-pyrrole-3-sulfonamide]", "IC50": "0.5 to 5"}, {"smiles": "O=S(=O)(Nc1cc(F)c(OCC(F)F)cc1F)c1c[nH]cc1Cc1ccccc1", "note": "[Cpd 468, 4-benzyl-N-[4-(2,2-difluoroethoxy)-2,5-difluorophenyl]-1H-pyrrole-3-sulfonamide]", "IC50": "0.5 to 5"}, {"smiles": "Cn1cccc(-c2cc(S(=O)(=O)Nc3ccc(C#N)cc3F)c[nH]2)c1=O", "note": "[Cpd 600, N-(4-cyano-2-fluorophenyl)-5-(1-methyl-2-oxopyridin-3-yl)-1H-pyrrole-3-sulfonamide]", "IC50": "5 to 50"}, {"smiles": "Cc1cc(-c2cc(S(=O)(=O)Nc3ccc(C#N)cc3F)c[nH]2)ccc1F", "note": "[Cpd 269, N-(4-cyano-2-fluoro-phenyl)-5-(4-fluoro-3-methyl-phenyl)-1H-pyrrole-3-sulfonamide]", "IC50": "< 0.5"}, {"smiles": "N#Cc1ccc(NS(=O)(=O)c2c[nH]cc2-c2ccccc2)c(F)c1", "note": "[Cpd 009, N-(4-cyano-2-fluorophenyl)-4-phenyl-1H-pyrrole-3-sulfonamide]", "IC50": "0.5 to 5"}, {"smiles": "N#Cc1ccc(NS(=O)(=O)c2c[nH]c(Cc3ccccc3)c2)c(F)c1", "note": "[Cpd 019, 5-benzyl-N-(4-cyano-2-fluoro-phenyl)-1H-pyrrole-3-sulfonamide]", "IC50": "0.5 to 5"}, {"smiles": "N#Cc1ccc(NS(=O)(=O)c2c[nH]cc2Cc2ccc3c(c2)OCC3)c(F)c1", "note": "[Cpd 608, N-(4-cyano-2-fluorophenyl)-4-(2,3-dihydro-1-benzofuran-6-ylmethyl)-1H-pyrrole-3-sulfonamide]", "IC50": "5 to 50"}, {"smiles": "O=S(=O)(Nc1cc(F)c(OC(F)F)cc1F)c1c[nH]cc1Cc1ccc(F)cc1", "note": "[Cpd 485, N-[4-(difluoromethoxy)-2,5-difluorophenyl]-4-[(4-fluorophenyl)methyl]-1H-pyrrole-3-sulfonamide]", "IC50": "0.5 to 5"}, {"smiles": "C#Cc1cnc(NS(=O)(=O)c2c[nH]c(-c3ccccc3)c2)c(F)c1", "note": "[Cpd 216, N-(5-ethynyl-3-fluoro-2-pyridyl)-5-phenyl-1H-pyrrole-3-sulfonamide]", "IC50": "0.5 to 5"}, {"smiles": "O=S(=O)(Nc1cc(F)c(C(F)(F)F)cc1F)c1c[nH]c(-c2ccsc2)c1", "note": "[Cpd 273, N-[2,5-difluoro-4-(trifluoromethyl)phenyl]-5-(3-thienyl)-1H-pyrrole-3-sulfonamide]", "IC50": "< 0.5"}, {"smiles": "O=S(=O)(Nc1cc(Cl)c(C(F)(F)F)cc1F)c1c[nH]c(-c2ccccc2)c1", "note": "[Cpd 378, N-[5-chloro-2-fluoro-4-(trifluoromethyl)phenyl]-5-phenyl-1H-pyrrole-3-sulfonamide]", "IC50": "0.5 to 5"}, {"smiles": "Cc1cccc(-c2cc(S(=O)(=O)Nc3cc(F)c(C(F)(F)F)cc3F)c[nH]2)n1", "note": "[Cpd 279, N-[2,5-difluoro-4-(trifluoromethyl)phenyl]-5-(6-methyl-2-pyridyl)-1H-pyrrole-3-sulfonamide]", "IC50": "0.5 to 5"}, {"smiles": "N#Cc1ccc(NS(=O)(=O)c2c[nH]c(Cc3ccccn3)c2)c(F)c1", "note": "[Cpd 491, N-(4-cyano-2-fluorophenyl)-5-(pyridin-2-ylmethyl)-1H-pyrrole-3-sulfonamide]", "IC50": "5 to 50"}, {"smiles": "COc1cc(F)cc(-c2cc(S(=O)(=O)Nc3ccc(C#N)cc3F)c[nH]2)c1", "note": "[Cpd 299, N-(4-cyano-2-fluoro-phenyl)-5-(3-fluoro-5-methoxy-phenyl)-1H-pyrrole-3-sulfonamide]", "IC50": "0.5 to 5"}, {"smiles": "N#Cc1cc(F)c(NS(=O)(=O)c2cc(-c3ccccc3)[nH]c2F)cc1F", "note": "[Cpd 077, N-(4-cyano-2,5-difluoro-phenyl)-2-fluoro-5-phenyl-1H-pyrrole-3-sulfonamide]", "IC50": "0.5 to 5"}, {"smiles": "N#Cc1ccc(NS(=O)(=O)c2c[nH]c(-c3cc(F)ccc3Cl)c2)c(F)c1", "note": "[Cpd 256, 5-(2-chloro-5-fluoro-phenyl)-N-(4-cyano-2-fluoro-phenyl)-1H-pyrrole-3-sulfonamide]", "IC50": "< 0.5"}, {"smiles": "Cc1csc(-c2cc(S(=O)(=O)Nc3cc(F)c(C(F)(F)F)cc3F)c[nH]2)n1", "note": "[Cpd 599, N-[2,5-difluoro-4-(trifluoromethyl)phenyl]-5-(4-methyl-1,3-thiazol-2-yl)-1H-pyrrole-3-sulfonamide]", "IC50": "< 0.5"}, {"smiles": "COc1cccc(OC)c1-c1cc(S(=O)(=O)Nc2ccc(C#N)cc2F)c[nH]1", "note": "[Cpd 095, N-(4-cyano-2-fluoro-phenyl)-5-(2,6-dimethoxyphenyl)-1H-pyrrole-3-sulfonamide]", "IC50": "0.5 to 5"}, {"smiles": "O=S(=O)(Nc1cc(F)c(C(F)(F)F)cc1F)c1c[nH]c(-c2cccc(Cl)n2)c1", "note": "[Cpd 215, 5-(6-chloro-2-pyridyl)-N-[2,5-difluoro-4-(trifluoromethyl)phenyl]-1H-pyrrole-3-sulfonamide]", "IC50": "< 0.5"}, {"smiles": "N#Cc1cc(F)c(NS(=O)(=O)c2c[nH]c(-c3cnsc3)c2)cc1F", "note": "[Cpd 657, N-(4-cyano-2,5-difluorophenyl)-5-(1,2-thiazol-4-yl)-1H-pyrrole-3-sulfonamide]", "IC50": "0.5 to 5"}, {"smiles": "O=S(=O)(Nc1cc(C(F)(F)F)ncc1F)c1c[nH]c(-c2ccccc2)c1", "note": "[Cpd 199, N-[5-fluoro-2-(trifluoromethyl)-4-pyridyl]-5-phenyl-1H-pyrrole-3-sulfonamide]", "IC50": "5 to 50"}, {"smiles": "O=S(=O)(Nc1cc(F)c(OC(F)F)cc1F)c1c[nH]c(-c2ccc(F)cc2F)c1", "note": "[Cpd 412, N-[4-(difluoromethoxy)-2,5-difluorophenyl]-5-(2,4-difluorophenyl)-1H-pyrrole-3-sulfonamide]", "IC50": "0.5 to 5"}, {"smiles": "COc1ccc(F)cc1-c1cc(S(=O)(=O)Nc2ccc(C#N)cc2F)c[nH]1", "note": "[Cpd 314, N-(4-cyano-2-fluoro-phenyl)-5-(5-fluoro-2-methoxy-phenyl)-1H-pyrrole-3-sulfonamide]", "IC50": "0.5 to 5"}, {"smiles": "O=S(=O)(Nc1cc(F)c(C(F)(F)F)cc1F)c1c[nH]c(-c2ccccn2)c1", "note": "[Cpd 124, N-[2,5-difluoro-4-(trifluoromethyl)phenyl]-5-(2-pyridyl)-1H-pyrrole-3-sulfonamide]", "IC50": "< 0.5"}]}]}
